Experimental data reported in patent publication US20020177625A1, “Class of glaucoma drugs to enhance aqueous humor outflow and lower intra-ocular pressure” (The Regents of the University of California, a California …, priority 2001, published 2002).
Entries after “also recorded” stand apart in the source; their conditions may differ.

Columns and labels:
human TM cells [1] = experiment: Intracellular volume of human TM cells (14C-urea/14C-sucrose water space or COULTER COUNTER electronic cell sizing), isotonic medium; type: cell-based; details: human TM cells
Experimental: The intracellular volume of human and bovine TM cells was evaluated by two methods: 1) radioisotopic evaluation of TM monolayer intracellular water space using ^14C-urea and ^14C-sucrose as markers of total and extracellular space, respectively; and 2) electronic cell sizing of suspended TM cells, using a COULTER COUNTER™ assay (Coulter Electronics, Ltd., Hialeah, Fla.). Details of these methods have been described previously by O'Donnell (O'Donnell, M. E., supra, 1993) the entirety of which is incorporated herein by reference.
By the first method, cell monolayers were preequilibrated for 30 minutes in Hepes MEM at 37° C. in an air atmosphere, then incubated for 20 minutes in Hepes MEM containing 0 or 10 μM bumetamide, ethacrynic acid, or other agents to be tested, and finally incubated for 10 minutes in the same medium containing either ^14C-urea or ^14C-sucrose (both at 1 μCi/ml). Monolayers were then rinsed with isotonic ice-cold MgCl2 and radioactivity of SDS extracts determined by liquid scintillation. Specific activities (counts per minute/ml) of ^14C-urea and ^14C-sucrose in the assay medium were determined and used to calculate water space associated with trapped radioactivity (expressed as μl/mg protein. Intracellular volume was calculated as the difference between the water space determined for ^14C-urea (a marker for intracellular plus trapped extracellular space) and ^14C-sucrose (a marker for trapped extracellular space).
By the second method, TM cells were trypsinized briefly in Ca-free medium, then rinsed with medium containing trypsin inhibitor and suspended in Hepes MEM. Mean cell volumes were then analyzed by electronic cell sizing on a COULTER COUNTER™ radioassay (Model ZM) with channelizer (C256), using at least 50,000 cells per data point and an orifice diameter of 140 μm. Aliquots of suspended cells were diluted into Hepes MEM containing the tonicity and/or agents to be evaluated. Mean cell volumes of each suspension aliquot were followed over time, starting at 1 minute after addition of cells to the assay media. Cell suspensions were maintained at 37° C. throughout the assay period. Absolute volumes (picoliters/cell) were calculated from distribution curves of cell diameter, using a standard curve generated by polystyrene latex beads of known diameter.
Human TM cells were exposed to isotonic medium ±niflumic acid (10 or 100 μM)±10 μM bumetamide. Cell volume was assessed by COULTER COUNTER™ electronic cell sizing over the time course shown, using TM cells in suspension. Note that niflumic acid (NA) alone decreases volume of the TM cells and that exposing the cells to NA plus bumetamide causes a further decrease in TM cell volume. Data represent means of two experiments (all conditions shown tested in both experiments).

human TM cells [2] = experiment: Whole cell patch clamp ion conductances of human TM cells; type: cell-based
Experimental: Further studies conducted with agents known to block Cl and K channels attenuate the swelling-activated regulatory volume decrease in TM cells and niflumic acid reduces both cell volume and intracellular [Cl] of TM cells. In these studies, human TM cells were cultured from donor eyes and used between passages three and eight. Routine whole cell patch clamp methods were used to assess conductances of TM cells in isotonic (290 mOsm) and hypotonic (230 mOsm) media, with or without NPPB, DIDS, TEA or niflumic acid. Conductances were determined from current/voltage plots, generated using a ramp protocol. […] The reversal potential observed in the presence of hypotonic medium was close to the calculated reversal potential for Cl. Switching to an external medium containing reduced Cl shifted the reversal potential toward that calculated for the low Cl medium. Treating the TM cells with the Cl channel blocker NPPB (100 μM) abolished the swelling-activated conductance in a manner reversed by subsequent washout of NPPB. […] Finally, treatment of the cells with the K channel blocker TEA (1 mM) also abolished the niflumic acid-activated TM cell conductance.
Human TM and SC cells grown to subconfluence are gently trypsinized on the day of the experiment and immediately exposed to trypsin-neutralizing solution and then allowed to settle onto standard square (22×22-mm) glass coverslips for 30 minutes before use. Routine patch clamp methods were used as described previously Barakat, A. I., et al., Circulation Research, 85: 820-828, 1999; Hamill, O. P. et al., Pflügers Archives, 391: 85-100, 1981; Mauro, T. et al., J of Invest. Dermatology, 105: 203-208, 1995; Pappone, P. A. et al., J. of Physiology, 306:377-410, 1980; Pappone, P. A. et al., J of Gen. Physiology, 106: 231-258, 1995; Pappone, P. A. et al., Amer. J. of Physiology: Cell Physiology, 264: C1014-C1019, 1993; Wilson, S. M. et al., J. of Gen. Physiology, 113: 125-138, 1999. Using the whole cell patch clamp mode, conductances were assessed for isotonic and hypotonic media. By assessing current/voltage (I/V) relationships and reversal potentials for the TM and SC cells while using specific concentrations of Cl in the pipette and bath media, the nature of the conductances observed can be determined.
Whole cell currents were measured at room temperature in a Warner recording/perfusion chamber (Warner Instrument Corp.) using standard whole-cell patch clamp techniques as described previously, Lucero, M. T. et al., J. of Gen. Physiology, 95:523-544, 1999. Thick-walled borosilicate capillaries (Sutter Instruments, Inc., Novato, Calif.) were used to manufacture pipettes with resistances of 3 to 5 MW. The voltage offset between the patch pipette and the bath solution were nulled immediately before patch formation. An agar bridge containing […] KCl was used to ground the bath solution. Voltages were recorded from a patch-clamp amplifier (AXOPATCH 200A, Axon Instruments). Data was collected on a Macintosh personal computer using Pulse+Pulsefit software (HEKA Elektronik). Whole-cell currents were recorded from single (sub confluent) cells with membrane capacitances nulled through the patch-clamp amplifier. The voltage ramp protocol included a voltage step from the holding potential to +60 mV for 40 ms followed by a ramp to −100 mV over a period of 400 ms followed by a return to the holding potential. During the protocol, voltage ramps were conducted once every 5 seconds for 10 minutes, yielding 120 traces. Conductances were computed by taking the derivative of a least-squares straight line fit to the I-V data plots using Igor Pro Software (Wavemetrics, Inc.). In cases in which the I-V plots are not linear over the entire voltage ramp (as in FIGS. 6AB), computation of the whole-cell conductance were restricted to a linear range, typically 0 to +60 mV. […]

O=C(O)c1cccnc1Nc1cccc(C(F)(F)F)c1 [niflumic acid]
TM cell volume in isotonic medium (resting volume) (human TM cells [1]; niflumic acid 10 μM): decreased | TM cell volume in isotonic medium (resting volume) (human TM cells [1]; niflumic acid 100 μM): decreased | reversal potential of the niflumic acid-activated conductance (human TM cells [2]; human TM cell, 100 μM niflumic acid, calculated reversal potentials Cl −22 mV, K −82 mV): very close to the Cl reversal potential; also recorded: quite close to the calculated reversal potential for Cl | niflumic acid-activated conductance, dependence on bath ions (human TM cells [2]; human TM cells, niflumic acid 100 μM, K-free or Cl-free medium): abolished in K-free medium but not in Cl-free medium | ion conductance of TM cells (human TM cells [2]; normal human TM cells, isotonic bath, niflumic acid 100 μM): activate an ion conductance; also recorded: rapid increase in conductance
